In brackets after ≈: the same amount, converted by molar mass. Read-outs that look alike come from different tables or passages of the source.
Tests used:
[1] = test system: Fab I; conditions: 1 μM compound
[2] = test system: MRSA; assay: MIC by broth microdilution method; format: cell-based; conditions: for MIC: Staphylococcus aureus, read-out: MIC Vs MRSA (μg/ml) MRSA
[3] = test system: MSSA; assay: MIC by broth microdilution method; format: cell-based; conditions: for MIC: Staphylococcus aureus, MRSA / MSSA, read-out: MIC Vs MRSA (μg/ml) MSSA
[4] = Metabolic stability study in mouse liver microsomes; format: in vitro ADME; conditions: 1 μM, 37° C.
Experimental: The above selected compounds have protected mice from infection at ED50 doses. Metabolic Stability Study: In vitro metabolic stability of the compounds was done in mouse liver microsomes prepared in house as per standard protocol. Compounds were tested at 1 μM concentration. Compounds were incubated for 15 and 60 minutes at 37° C. with 100 rpm in shaker bath. After the incubation samples were analysed by LC/MS (API-4000). Respective control (Propranalol) was included in the study.

[5] = test system: MRSE; assay: MIC by broth microdilution method; format: cell-based; conditions: for MIC: Staphylococcus epidermidis, MRSA / MRSE, read-out: MIC Vs MRSA (μg/ml) MRSE

SMILES: O=C1CCc2cc(/C=C/C(=O)N3CC=C(c4ccccc4)CC3)cnc2N1 [Compound 2, (E)-6-(3-oxo-3-(4-phenyl-5,6-dihydropyridin-1(2H)-yl)prop-1-en-1-yl)-3,4-dihydro-1,8-naphthyridin-2(1H)-one]
- FAB-I inhibition %@1 μM [1]: 86%
- MIC ([2]; MRSA, broth microdilution): 0.5 µg/mL (≈ 1.39 µM)
- MIC ([3]; MSSA, broth microdilution): 0.5 µg/mL (≈ 1.39 µM)
- Percentage of compound remained after 15 min [4]: 99.7%
- Percentage of compound remained after 60 min [4]: 97.9%
- MIC ([5]; MRSE, broth microdilution): 4 µg/mL (≈ 11.1 µM)

SMILES: O=C1CCc2cc(/C=C/C(=O)N3CC=C(c4ccc(F)cc4)CC3)cnc2N1 [Compound 8]
- FAB-I inhibition %@1 μM [1]: 108%
- MIC Vs MRSA (μg/ml) MRSA ([2]; MRSA, broth microdilution): 2 µg/mL (≈ 5.3 µM)
- MIC Vs MRSA (μg/ml) MSSA ([3]; MSSA, broth microdilution): 2 µg/mL (≈ 5.3 µM)
- MIC Vs MRSA (μg/ml) MRSE ([5]; MRSE, broth microdilution): 8 µg/mL (≈ 21.2 µM)

SMILES: Cc1cnc(CC2=CCN(C(=O)/C=C/c3cnc4c(c3)CCC(=O)N4)CC2)s1 [Compound 57]
- Percentage of compound remained after 15 min [4]: 86.8%
- Percentage of compound remained after 60 min [4]: 57.1%

SMILES: O=C1CCc2cc(/C=C/C(=O)N3CC=C(Cc4ccccc4)CC3)cnc2N1 [Compound 62]
- FAB-I inhibition %@1 μM [1]: 76%
- MIC Vs MRSA (μg/ml) MRSA [2]: 0.5 µg/mL (≈ 1.34 µM)
- MIC Vs MRSA (μg/ml) MSSA [3]: 0.25 µg/mL (≈ 0.669 µM)
- Percentage of compound remained after 15 min [4]: 78.5%
- Percentage of compound remained after 60 min [4]: 54.2%
- MIC Vs MRSA (μg/ml) MRSE [5]: 0.5 µg/mL (≈ 1.34 µM)

SMILES: O=C1CCc2cc(/C=C/C(=O)N3CC=C(Cc4cccc(F)c4)CC3)cnc2N1 [Compound 65]
- FAB-I inhibition %@1 μM [1]: 90%
- MIC Vs MRSA (μg/ml) MRSA [2]: 0.25 µg/mL (≈ 0.639 µM)
- MIC Vs MRSA (μg/ml) MSSA [3]: 0.25 µg/mL (≈ 0.639 µM)
- Percentage of compound remained after 15 min [4]: 90.6%
- Percentage of compound remained after 60 min [4]: 75.0%
- MIC Vs MRSA (μg/ml) MRSE [5]: 0.5 µg/mL (≈ 1.28 µM)

SMILES: O=C1CCc2cc(/C=C/C(=O)N3CC=C(Cc4ccccc4F)CC3)cnc2N1 [Compound 66]
- FAB-I inhibition %@1 μM [1]: 84%
- MIC Vs MRSA (μg/ml) MRSA [2]: 0.25 µg/mL (≈ 0.639 µM)
- MIC Vs MRSA (μg/ml) MSSA [3]: 0.25 µg/mL (≈ 0.639 µM)
- MIC Vs MRSA (μg/ml) MRSE [5]: 0.25 µg/mL (≈ 0.639 µM)

SMILES: O=C1CCc2cc(/C=C/C(=O)N3CC=C(Cc4cccc(Cl)c4)CC3)cnc2N1 [Compound 67]
- FAB-I inhibition %@1 μM [1]: 63%
- MIC Vs MRSA (μg/ml) MRSA ([2]; MRSA, broth microdilution): 1 µg/mL (≈ 2.45 µM)
- MIC Vs MRSA (μg/ml) MSSA ([3]; MSSA, broth microdilution): 2 µg/mL (≈ 4.9 µM)
- MIC Vs MRSA (μg/ml) MRSE ([5]; MRSE, broth microdilution): 2 µg/mL (≈ 4.9 µM)

SMILES: Cc1ccc(CC2=CCN(C(=O)/C=C/c3cnc4c(c3)CCC(=O)N4)CC2)cc1 [Compound 70]
- FAB-I inhibition %@1 μM [1]: 63.47%
- MIC Vs MRSA (μg/ml) MRSA [2]: 1 µg/mL (≈ 2.58 µM)
- MIC Vs MRSA (μg/ml) MSSA [3]: 1 µg/mL (≈ 2.58 µM)
- MIC Vs MRSA (μg/ml) MRSE [5]: 2 µg/mL (≈ 5.16 µM)

SMILES: O=C1CCc2cc(/C=C/C(=O)N3CC=C(Cc4cccs4)CC3)cnc2N1 [Compound 84]
- FAB-I inhibition %@1 μM [1]: 100%
- MIC Vs MRSA (μg/ml) MRSA [2]: 0.25 µg/mL (≈ 0.659 µM)
- MIC Vs MRSA (μg/ml) MSSA [3]: 0.125 µg/mL (≈ 0.329 µM)
- MIC Vs MRSA (μg/ml) MRSE [5]: 0.25 µg/mL (≈ 0.659 µM)

SMILES: O=C1CCc2cc(/C=C/C(=O)N3CC=C(Cc4sccc4Cl)CC3)cnc2N1 [Compound 87]
- FAB-I inhibition %@1 μM [1]: 69.05%
- MIC Vs MRSA (μg/ml) MRSA [2]: 0.5 µg/mL (≈ 1.21 µM)
- MIC Vs MRSA (μg/ml) MSSA [3]: 0.5 µg/mL (≈ 1.21 µM)
- MIC Vs MRSA (μg/ml) MRSE [5]: 0.5 µg/mL (≈ 1.21 µM)

SMILES: O=C1CNCc2cc(/C=C/C(=O)N3CC=C(Cc4cccs4)CC3)cnc2N1 [Compound 92, (E)-7-(3-oxo-3-(4-(thiophen-2-ylmethyl)-5,6-dihydropyridin-1(2H)-yl)prop-1-en-1-yl)-4,5-dihydro-1H-pyrido[2,3-e][1,4]diazepin-2(3H)-one]
- MIC ([2]; MRSA, broth microdilution): 0.25 µg/mL (≈ 0.634 µM)
- MIC ([3]; MSSA, broth microdilution): 0.12 µg/mL (≈ 0.304 µM)
- MIC ([5]; MRSE, broth microdilution): 0.25 µg/mL (≈ 0.634 µM)

SMILES: CC(C)(C)OC(=O)N1CCC2(CC1)Cc1cc(/C=C/C(=O)N3CC=C(Cc4cccs4)CC3)cnc1NC2=O [Compound 94, (E)-tert-butyl 2-oxo-6-(3-oxo-3-(4-(thiophen-2-ylmethyl)-5,6-dihydropyridin-1(2H)-yl)prop-1-en-1-yl)-2,4-dihydro-1H-spiro[[1,8]naphthyridine-3,4′-piperidine]-1′-carboxylate]
- MIC ([2]; MRSA, broth microdilution): 0.5 µg/mL (≈ 0.911 µM)
- MIC ([3]; MSSA, broth microdilution): 0.5 µg/mL (≈ 0.911 µM)
- Percentage of compound remained after 15 min [4]: 55.7%
- Percentage of compound remained after 60 min [4]: 37.6%
- MIC ([5]; MRSE, broth microdilution): 1 µg/mL (≈ 1.82 µM)

SMILES: CC(=O)N1CCC2(CC1)Cc1cc(/C=C/C(=O)N3CC=C(Cc4cccs4)CC3)cnc1NC2=O [Compound 96, (E)-1′-acetyl-6-(3-oxo-3-(4-(thiophen-2-ylmethyl)-5,6-dihydropyridin-1(2H)-yl)prop-1-en-1-yl)-1H-spiro[[1,8]naphthyridine-3,4′-piperidin]-2(4H)-one]
- MIC ([2]; MRSA, broth microdilution): 8 µg/mL (≈ 16.3 µM)
- MIC ([3]; MSSA, broth microdilution): 8 µg/mL (≈ 16.3 µM)
- MIC ([5]; MRSE, broth microdilution): 16 µg/mL (≈ 32.6 µM)

SMILES: O=C1CCc2cc(/C=C/C(=O)N3CC=C(Cc4nccs4)CC3)cnc2N1 [Compound 97]
- FAB-I inhibition %@1 μM [1]: 66.85%
- MIC Vs MRSA (μg/ml) MRSA [2]: 0.5 µg/mL (≈ 1.31 µM)
- MIC Vs MRSA (μg/ml) MSSA [3]: 0.5 µg/mL (≈ 1.31 µM)
- MIC Vs MRSA (μg/ml) MRSE [5]: 1 µg/mL (≈ 2.63 µM)

SMILES: O=C1CCc2cc(/C=C/C(=O)N3CC=C(Cn4cccn4)CC3)cnc2N1 [Compound 100]
- FAB-I inhibition %@1 μM [1]: 77%
- MIC Vs MRSA (μg/ml) MRSA ([2]; MRSA, broth microdilution): 128 µg/mL (≈ 352 µM)
- MIC Vs MRSA (μg/ml) MSSA ([3]; MSSA, broth microdilution): 128 µg/mL (≈ 352 µM)
- MIC Vs MRSA (μg/ml) MRSE ([5]; MRSE, broth microdilution): 128 µg/mL (≈ 352 µM)

SMILES: O=C1CCc2cc(/C=C/C(=O)N3CC=C(COc4ccccc4)CC3)cnc2N1 [Compound 107, (E)-6-(3-oxo-3-(4-(phenoxymethyl)-5,6-dihydropyridin-1(2H)-yl)prop-1-en-1-yl)-3,4-dihydro-1,8-naphthyridin-2(1H)-one]
- FAB-I inhibition %@1 μM [1]: 95%
- MIC ([2]; MRSA, broth microdilution): 4 µg/mL (≈ 10.3 µM)
- MIC ([3]; MSSA, broth microdilution): 4 µg/mL (≈ 10.3 µM)
- MIC ([5]; MRSE, broth microdilution): 4 µg/mL (≈ 10.3 µM)

SMILES: O=C1CCc2cc(/C=C/C(=O)N3CC=C(COc4ccc(Cl)cc4)CC3)cnc2N1 [Compound 113]
- FAB-I inhibition %@1 μM [1]: 36%
- MIC Vs MRSA (μg/ml) MRSA ([2]; MRSA, broth microdilution): >128 µg/mL
- MIC Vs MRSA (μg/ml) MSSA ([3]; MSSA, broth microdilution): >128 µg/mL
- MIC Vs MRSA (μg/ml) MRSE ([5]; MRSE, broth microdilution): >128 µg/mL

SMILES: O=C(/C=C/c1cnc2c(c1)CC1(CCN(C(=O)CO)CC1)C(=O)N2)N1CC=C(Cc2cccs2)CC1 [Compound 138, (E)-1′-(2-hydroxyacetyl)-6-(3-oxo-3-(4-(thiophen-2-ylmethyl)-5,6-dihydropyridin-1(2H)-yl)prop-1-en-1-yl)-1H-spiroa[[1,8]naphthyridine-3,4′-piperidin]-2(4H)-one]
- Percentage of compound remained after 15 min [4]: 44.3%
- Percentage of compound remained after 60 min [4]: 10.2%

SMILES: NC(=O)N1CCC2(CC1)Cc1cc(/C=C/C(=O)N3CC=C(Cc4cccs4)CC3)cnc1NC2=O [Compound 139, (E)-2-oxo-6-(3-oxo-3-(4-(thiophen-2-ylmethyl)-5,6-dihydropyridin-1(2H)-yl)prop-1-en-1-yl)-2,4-dihydro-1H-spiro[[1,8]naphthyridine-3,4′-piperidine]-1′-carboxamide]
- Percentage of compound remained after 15 min [4]: 21.6%
- Percentage of compound remained after 60 min [4]: 7.3%

SMILES: CC(C)CC(=O)N1CCC2(CC1)Cc1cc(/C=C/C(=O)N3CC=C(Cc4cccs4)CC3)cnc1NC2=O [Compound 140, (E)-1′-(3-methylbutanoyl)-6-(3-oxo-3-(4-(thiophen-2-ylmethyl)-5,6-dihydropyridin-1(2H)-yl)prop-1-en-1-yl)-1H-spiro[[1,8]naphthyridine-3,4′-piperidin]-2(4H)-one]
- Percentage of compound remained after 15 min [4]: 1.9%
- Percentage of compound remained after 60 min [4]: 1.7%

SMILES: O=C1CCNc2cc(/C=C/C(=O)N3CC=C(Cc4nccs4)CC3)cnc2N1 [Compound 143, (E)-8-(3-oxo-3-(4-(thiazol-2-ylmethyl)-5,6-dihydropyridin-1(2H)-yl)prop-1-en-1-yl)-2,3-dihydro-1H-pyrido[2,3-b][1,4]diazepin-4(5H)-one]
- Percentage of compound remained after 15 min [4]: 27.5%
- Percentage of compound remained after 60 min [4]: 15.8%

SMILES: O=C1CCc2cc(/C=C/C(=O)N3CC=C(Cc4cncs4)CC3)cnc2N1 [Compound 145]
- Percentage of compound remained after 15 min [4]: 83.3%
- Percentage of compound remained after 60 min [4]: 60.2%

SMILES: CN1CCC2(CC1)Cc1cc(/C=C/C(=O)N3CC=C(Cc4cccs4)CC3)cnc1NC2=O [Compound 146, (E)-1′-methyl-6-(3-oxo-3-(4-(thiophen-2-ylmethyl)-5,6-dihydropyridin-1(2H)-yl)prop-1-en-1-yl)-1H-spiro[[1,8]naphthyridine-3,4′-piperidin]-2(4H)-one]
- Percentage of compound remained after 15 min [4]: 57.9%
- Percentage of compound remained after 60 min [4]: 15.8%

SMILES: O=C(/C=C/c1cnc2c(c1)CN(CCN1CCC3(CC1)COC3)C(=O)N2)N1CC=C(Cc2cccs2)CC1 [Compound 147, (E)-3-(2-(2-oxa-7-azaspiro[3.5]nonan-7-yl)ethyl)-6-(3-oxo-3-(4-(thiophen-2-ylmethyl)-5,6-dihydropyridin-1(2H)-yl)prop-1-en-1-yl)-3,4-dihydropyrido[2,3-d]pyrimidin-2(1H)-one]
- Percentage of compound remained after 15 min [4]: 4.0%
- Percentage of compound remained after 60 min [4]: 2.2%

Reference: patent US9062002B2, “Substituted pyridine derivatives as FabI inhibitors” (Aurigene Discovery Technologies Limited, priority 2011, dated 2015)
